Results on six compounds are retold here after publication PMC8473062, “Stability and Safety of Inhibitor Cystine Knot Peptide, GTx1-15, from the Tarantula Spider Grammostola rosea” (Toxins, 2021).

Like-named read-outs stand apart in the source and are kept apart here.

The test system of one series is THP-1 cells. In words: Antigenicity assay (CD80, CD86, CD54 expression by real-time PCR). The following applies: positive control 4 μg/mL, 24 h exposure, RT-PCR, one range for the three genes. As for the experimental part:
THP-1 cells were cultured as described above. For antigenicity assays, 2.4 × 10^6 THP-1 cells were inoculated into single wells of a 12-well plate with 1.2 mL RPMI-1640 medium. […] As a negative control, RPMI-1640 was added. After a 24-h incubation, THP-1 cells were collected via centrifugation at 1000× g for 5 min, and then total RNA was extracted from cells using an RNeasy Mini Kit (QIAGEN, Hilden, Germany) according to the manufacturer’s instructions. Total RNA was treated with DNase (QIAGEN) for 10 min to digest contaminating genomic DNA and purified by an RNeasy MinElute Cleanup Kit (QIAGEN). Complementary DNA was synthesized with PrimeScript Reverse Transcriptase (Takara Bio) with an oligo (dT)12-18 primer (Invitrogen, Waltham, USA), 10 mM each dNTP mixture (Promega, Madison, USA), and RNase Inhibitor (Takara Bio). Real-time PCR mixtures were prepared with SYBR Premix Ex Taq (Takara Bio) according to the manufacturer’s instructions. […] Primers for real-time PCR were designed using Roche ProbeFinder version 2.45 (http://qpcr.probefinder.com/roche3.html. This site is stopped at the end of 2020).
For orientation: Real-time PCR tracks product formation cycle by cycle.

Series [1] can be described thus: Protein thermal shift assay. It is filed as physicochemical. The following applies: Protein Thermal Shift kit, heated 25 to 99 °C at 1 °C/min. As for the experimental part:
The protein thermal shift assay was conducted with the StepOne Real-Time PCR System (Thermo Fisher Scientific) using the Protein Thermal Shift Assay Kit according to the manufacturer’s instructions with Protein Thermal Shift Software version 1. The protein melt reaction mix was added to the wells of a 48-well PCR plate. The plate was heated from 25 to 99 °C with a heating rate of 1 °C/min. The software allows the user to calculate a melting temperature (Tm) from their melt curve data using the Boltzmann equation (Tm B).

The conditions of series [2]: cited from earlier work. As for the experimental part:
We previously reported that ProTxII (an ICK peptide) remains in circulation for over 4 h. Similar to those results, GTx1-15 retains an effective concentration in circulation for over several hours.

The conditions of series [3]: cited from earlier work; for degradation after thermal incubation: 24 h. As for the experimental part: Cyclotides are cystine-knotted peptides in which the N- and C-termini are cyclized. Kalata B1 is a well-known cyclotide that consists of 29 amino acids and is not degraded after heating to temperatures approaching boiling. The insecticidal spider toxin ω-hexatoxin-Hv1a is an ICK peptide whose thermal stability has been investigated. After incubating it for 24 h at 50 °C, 75 °C or 95 °C, ω-hexatoxin-Hv1a is degraded about 20%, 30% and 90%, respectively. In contrast, GTx1-15 degraded only 30% after a 24-h incubation at 95 °C.

As to `O=[N+]([O-])c1ccc(Cl)c([N+](=O)[O-])c1` [DNCB, 2,4-Dinitrochlorobenzene], in the series with THP-1 cells, the “increase in expression of CD80, CD86 and CD54 genes” value is 20–70 times.

Turning to “ProTxII: ICK peptide compared in the protein thermal shift assay”, the “Tm B (Boltzmann melting temperature)” value in series [1] amounted to 93.95 ± 0.12 °C. In addition, the “time remaining in circulation” value in series [2] was “over 4 h”.

Regarding “Kalata B1: well-known cyclotide of 29 amino acids; cystine-knotted peptide with N- and C-termini cyclized (cyclo(GLPVCGETCVGGTCNTPGCTCSWPVCTRN); disulfide (positions not given here); also: cystine-knotted (disulfide places not given here); UniProt P56254 89-117, looked up)”, in series [3] (heating to temperatures approaching boiling), the degradation after heating entry is recorded as “not degraded”.

Regarding “ProTxI: ICK peptide compared in the protein thermal shift assay (ECRYWLGGCSAGQTCCKHLVCSRRHGWCVWDGTFS; UniProt P83480 1-35, looked up)”, the “Tm B (Boltzmann melting temperature)” value in series [1] came out at 93.23 ± 0.12 °C.

Take ω-hexatoxin-Hv1a: the “degradation after thermal incubation” value in series [3] (50 °C) was “about 20%”; in series [3] (75 °C), around 30%; in series [3] (95 °C), around 90%.

In the case of GsMTx4, the “Tm B (Boltzmann melting temperature)” value in series [1] was found to be 95.26 ± 0.10 °C.
